Marks after values point to notes of the source that are not given here. Ends that are not written are not given here.
Legend:
[1] = test system: TPA-induced ear edema; assay: TPA ear edema model; details: for Topical Dose (% change vs. vehicle) 1.0%: topical 1.0%; for Topical Dose (% change vs. vehicle) 1.0% / Topical Dose (% change vs. vehicle) 0.1% / Topical Dose (% change vs. vehicle) 5 0%: ear biopsy weight six hours after TPA; for Topical Dose (% change vs. vehicle) 0.1%: topical 0.1%; for Systemic Dose (% change vs. vehicle) 5 mg/kg: systemic 5 mg/kg
[2] = test system: IFNγ; assay: Inhibition of cytokine production in PHA-activated PBLs (ELISA); type: cell-based; details: human PBLs, 10 μg/ml PHA, 48 hours, supernatant ELISA
Experimental: (§1) Briefly, human PBLs are collected from a subject and plated at 10^6 cells/ml in serum free lymphocyte growth medium, stimulated with 10 μg/ml phytohemagglutinin (PHA) in the presence or absence of the candidate peptide. The PBLs are incubated at 37° C. at 5% CO2 for 48 h, at which point the supernatants were collected. An ELISA is performed on the supernatants to detect a cytokine of interest (e.g., IL-1, TNF-α, IFN-γ) and the cells are incubated for another 72 h to measure proliferation (see, e.g., Sigusch et al., J. Periodontol. 69:1098, 1998).
(§2) Human peripheral blood lymphocytes (PBLs) were collected from a healthy adult […] and plated at 10^6 cells/ml in serum free lymphocyte growth media in a 96-well plate. The PBLs were stimulated with 10 μg/ml PHA in the presence or absence of test sample and incubated at 37° C. at 5% CO2 for 48 hours. Collected and pooled supernatants were stored at −20° C., then assayed with commercially available ELISA kits (Endogen and Biosource) and assayed for viability with LDH (Bochringer Mannheim). The cells remaining after supernatant removal were returned to the incubator and proliferation was determined at 72 hours by using AlamarBlue (Alamar Bioscience). Compounds were tested at 1, 10, 100 and 1000 μg/ml. The peptides were effective at inhibiting cytokine production and PBL proliferation (Table 4), which indicates these peptides can function as anti-inflammatory agents.

[3] = test system: IL-10; assay: as above; type: cell-based; details: human PBLs, 10 μg/ml PHA, 48 hours, supernatant ELISA
Experimental: as §1, §2

[4] = test system: IL-12; assay: as above; type: cell-based; details: human PBLs, 10 μg/ml PHA, 48 hours, supernatant ELISA
Experimental: as §1, §2

[5] = test system: IL-1α; assay: as above; type: cell-based; details: human PBLs, 10 μg/ml PHA, 48 hours, supernatant ELISA
Experimental: as §1, §2

[6] = test system: IL-2; assay: as above; type: cell-based; details: human PBLs, 10 μg/ml PHA, 48 hours, supernatant ELISA
Experimental: as §1, §2

[7] = test system: IL-4; assay: as above; type: cell-based; details: human PBLs, 10 μg/ml PHA, 48 hours, supernatant ELISA
Experimental: as §1, §2

[8] = test system: IL-6; assay: as above; type: cell-based; details: human PBLs, 10 μg/ml PHA, 48 hours, supernatant ELISA
Experimental: as §1, §2

[9] = test system: TNFα; assay: as above; type: cell-based; details: human PBLs, 10 μg/ml PHA, 48 hours, supernatant ELISA
Experimental: as §1, §2

[10] = test system: oxazolone contact hypersensitivity (ear inflammation); assay: Oxazolone contact hypersensitivity model; type: in vivo, CD-1 mice; details: Dosage of 0.1%, applied to ear one hour after oxazolone challenge, ear punch weight after 24 h, 70% EtOH/30% propylene glycol vehicle
Experimental: Briefly, a 3.0% (w/v) solution of oxazolone in acetone/corn oil (5:1) is applied topically to the skin on the shaved abdomens of mice of approximately the same weight and approximately the same age on day 0. […] Twenty-four hours later a dermal biopsy punch of the treated ear is taken and weighed.
CD-1 mice are treated with 3% oxazolone (Sigma) (30 mg/ml) in corn oil:acetone on a shaved abdomen. All solutions are sonicated for 7 minutes. Five days later, the mice are challenged with a 2% oxazolone (20 mg/ml) in acetone on the left ear, with the right ear being left untreated (control). One hour after challenge, the candidate peptide in a 70% EtOH/30% propylene glycol formulation (vehicle) was applied to the left ear, with the right ear being left untreated. After 24 h, 7 mm ear punches are taken from each ear of the mice. The ear punches are placed on a scale and the difference between the treated and untreated ears were compared. The percent inhibition of inflammation was calculated by comparing the mean of each treated group to the control group. The positive control is hydrocortisone (a known anti-inflammatory agent). Most of the indolicidin peptides inhibited inflammation as well as hydrocortisone.

[11] = formulated in 50% ethanol/5 mM lactate buffer (*)
[12] = topical 5.0%, formulated in 95% ethanol
[13] = topical 5 0%, formulated in 50% ethanol/5 mM lactate buffer (*)

ILRWVWWVWRRK-NH2 [Peptide 11F4CN, I L R W V W W V W R R K]
Topical Dose (% change vs. vehicle) 1.0% ([1]; formulated in 95% ethanol): −55%

R L W V W W V W (RLWVWWVW-{CN}) [Peptide 11F11CN]
Topical Dose (% change vs. vehicle) 0.1% [1, 11]: −49* %
Topical Dose (% change vs. vehicle) 1.0% [1, 11]: −75* %
Topical Dose (% change vs. vehicle) 1.0% ([1]; formulated in 95% ethanol): −87%

F R F F K P K F R F P K F (FRFFKPKFRFPKF-{CN}) [Peptide 11J33CN]
Topical Dose (% change vs. vehicle) 1.0% ([1]; formulated in 95% ethanol): −52%

C[C@@H]1C[C@H]2[C@@H]3CCC4=CC(=O)C=C[C@]4(C)[C@@]3(F)[C@@H](O)C[C@]2(C)[C@@]1(O)C(=O)CO [Dexamethasone, dexamethasone, reference compound]
Systemic Dose (% change vs. vehicle) 5 mg/kg [1]: >−80%
Topical Dose (% change vs. vehicle) 0.1% [1, 11]: >−90* %
Topical Dose (% change vs. vehicle) 0.1% ([1]; formulated in 95% ethanol): −92%

W R L L K L A L R L L K W (WRLLKLALRLLKW-{CN}) [Peptide 11J44CN]
Systemic Dose (% change vs. vehicle) 5 mg/kg [1]: −32%
Topical Dose (% change vs. vehicle) 1.0% ([1]; formulated in 95% ethanol): −88%

H-GWRFLKLAWRFLKL-OH [Peptide 11J97]
Topical Dose (% change vs. vehicle) 0.1% ([1]; formulated in 95% ethanol): +33%
Topical Dose (% change vs. vehicle) 1.0% ([1]; formulated in 95% ethanol): −29%
Topical Dose (% change vs. vehicle) 5 0% [1, 12]: −49%

RLWVWWVWRRK-NH2 [Peptide 11F12CN, R L W V W W V W R R K]
IC50 IFNγ [2]: 250 µg/mL
IC50 IL-10 [3]: 30 µg/mL
IC50 IL-12 [4]: 120 µg/mL
IC50 IL-1α [5]: 500 µg/mL
IC50 IL-2 [6]: 570 µg/mL
IC50 IL-4 [7]: 325 µg/mL
IC50 IL-6 [8]: 140 µg/mL
IC50 TNFα [9]: 68 µg/mL
% Inhibition of Inflammation [10]: 86.50%
Topical Dose (% change vs. vehicle) 1.0% ([1]; formulated in 95% ethanol): −56%

RLVVWVVWRRX-OH [Peptide 11F110]
Topical Dose (% change vs. vehicle) 0.1% [1, 11]: −45* %
Topical Dose (% change vs. vehicle) 1.0% [1, 11]: −83* %
Topical Dose (% change vs. vehicle) 5 0% [1, 13]: −87* %

H-L(Orn)FL(Orn)W AF(Orn)L W(Orn)L-CN [Peptide 11J84CN]
Topical Dose (% change vs. vehicle) 0.1% ([1]; formulated in 95% ethanol): −14%
Topical Dose (% change vs. vehicle) 1.0% ([1]; formulated in 95% ethanol): −35%

H-RILRWVWRILR-CN (H-RILRWVWRILR-{CN}) [Peptide 11J115CN]
Topical Dose (% change vs. vehicle) 0.1% ([1]; formulated in 95% ethanol): −1%
Topical Dose (% change vs. vehicle) 1.0% ([1]; formulated in 95% ethanol): −57%

W (Orn) W W (Orn) P (Orn) W (Orn) W P (Orn) W [Peptide 11J67CN]
Topical Dose (% change vs. vehicle) 1.0% [1, 11]: −33* %
Topical Dose (% change vs. vehicle) 5 0% [1, 13]: −66* %

C[C@]12CCC(=O)C=C1CC[C@@H]1[C@@H]2[C@@H](O)C[C@@]2(C)[C@H]1CC[C@]2(O)C(=O)CO [Hydrocortisone, hydrocortisone, reference compound]
% Inhibition of Inflammation [10]: 84.92%

A-ILTWPWWPWTTT-CN (not fully specified; N-terminal A, C-terminal nitrile/amide) [Peptide 11B24ACN]
Topical Dose (% change vs. vehicle) 5 0% [1, 12]: −75%

W (Dab) W W (Dab) P (Dab) W (Dab) W P (Dab) W [Peptide 11J68CN]
Topical Dose (% change vs. vehicle) 1.0% [1, 11]: −55* %
Topical Dose (% change vs. vehicle) 5 0% [1, 13]: −85* %

I L T W P W W P W T T T (ILTWPWWPWTTT-{CN}) [Peptide 11B24CN]
Topical Dose (% change vs. vehicle) 1.0% ([1]; formulated in 95% ethanol): −32%
Topical Dose (% change vs. vehicle) 5 0% [1, 12]: −64%

H-GWRFLKLAWRFLKLRR-OH [Peptide 11J136]
Topical Dose (% change vs. vehicle) 0.1% ([1]; formulated in 95% ethanol): −12%
Topical Dose (% change vs. vehicle) 1.0% ([1]; formulated in 95% ethanol): −54%

From patent US8933029B2, “Antimicrobial and anti-inflammatory peptides” (Carrus Capital Corporation, priority 2001, dated 2015)
